Among the data in patent US20250092064A1, “BENZOTRIAZOLE COMPOUND” (DAIICHI SANKYO COMPANY, LIMITED, priority 2022, published 2025) are IC50 and fold induction values, retold here.

Bounds are passed on as bounds.

The target in assay [1] is binding between Nrf2 and Keap1 (Homo sapiens (Human), UniProt Q14145). The assay can be described thus: FP assay (in vitro): inhibition of Nrf2-Keap1 binding by fluorescence polarization. Conditions: GST-fused human Keap1 (325-642) 20 nM, FITC-labeled Nrf2 peptide 10 nM, 2 hr at room temperature. (In general: In fluorescence polarisation assays a small probe gives low polarisation when free and higher when bound to something large.)
binding between Nrf2 and Keap1, sequence (Q14145 325-624 limits assumed): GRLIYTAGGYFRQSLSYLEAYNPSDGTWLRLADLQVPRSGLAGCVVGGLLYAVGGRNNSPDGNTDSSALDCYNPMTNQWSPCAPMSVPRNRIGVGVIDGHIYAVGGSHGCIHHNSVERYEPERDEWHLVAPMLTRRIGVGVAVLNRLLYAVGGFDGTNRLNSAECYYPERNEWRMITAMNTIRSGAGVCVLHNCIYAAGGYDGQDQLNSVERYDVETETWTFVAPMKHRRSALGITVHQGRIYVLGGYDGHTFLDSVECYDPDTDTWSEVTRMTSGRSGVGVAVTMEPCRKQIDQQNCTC

Assay [2] relates to NQO1 activity in Hepa1c1c7 cells. As to the kind of experiment: NAD(P)H: quinone oxidoreductase-1 (NQO1) enzyme induction assay (in vitro). Type of assay: cell-based, mouse. The conditions noted are these: Mus musculus, Hepa-1c1c7, NQO1 activity with 400 nM test compound as a ratio from the base without compound, about 48 hr. In short, it runs like this: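 Mouse Hepa1c1c7 hepatoma cells treated 48 hr with 400 nM compound (final). NQO1 activity in lysates read by absorbance at 610 nm; value is background-subtracted activity ratio versus untreated cells.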

With `CC[C@@H]1CN(Cc2cc([C@H](CC(=O)O)c3ccc4c(nnn4C)c3C)cc3c2CCC3)[C@@H](C)c2ncccc2O1` [Example 66, (3S)-3-(1,4-Dimethyl-1H-benzotriazol-5-yl)-3-(7-{[(2R,5S)-2-ethyl-5-methyl-2,3-dihydropyrido[2,3-f][1,4]oxazepin-4(5H)-yl]methyl}-2,3-dihydro-1H-inden-5-yl)propanoic acid], the IC50 in assay [1] lay in the range of 10 to 30 nM. Further, in assay [2], the fold induction at 0.4 µM was more than 5.
`CC[C@@H]1CN(Cc2cc([C@@H](CC(=O)O)c3cc(C)c4c(nnn4C)c3C)cc3ccsc23)[C@@H](C)c2ncccc2O1` [Example 67, (3R)-3-(7-{[(2R,5S)-2-Ethyl-5-methyl-2,3-dihydropyrido[2,3-f][1,4]oxazepin-4(5H)-yl]methyl}-1-benzothiophen-5-yl)-3-(1,4,7-trimethyl-1H-benzotriazol-5-yl)propanoic acid]: in assay [1], the IC50 is not above 10 nM. Besides, the fold induction at 0.4 µM in assay [2] is more than 5.
The compound `CC[C@@H]1CN(Cc2cc([C@H](CC(=O)O)c3cc(C)c4c(nnn4C)c3C)cc3ccsc23)[C@@H](C)c2ncccc2O1` [Example 68, (3S)-3-(7-{[(2R,5S)-2-Ethyl-5-methyl-2,3-dihydropyrido[2,3-f][1,4]oxazepin-4(5H)-yl]methyl}-1-benzothiophen-5-yl)-3-(1,4,7-trimethyl-1H-benzotriazol-5-yl)propanoic acid] had an IC50 in assay [1] not above 10 nM. In assay [2], the fold induction at 0.4 µM is more than 5.
In assay [1], `CC[C@@H]1CN(Cc2cc([C@H](CC(=O)O)c3cc(C)c4c(nnn4C)c3C)cc3c2CCC3)[C@@H](C)c2ncccc2O1` [Example 69, (3S)-3-(7-{[(2R,5S)-2-Ethyl-5-methyl-2,3-dihydropyrido[2,3-f][1,4]oxazepin-4(5H)-yl]methyl}-2,3-dihydro-1H-inden-5-yl)-3-(1,4,7-trimethyl-1H-benzotriazol-5-yl)propanoic acid] displayed a 50% inhibitory concentration (IC50) not above 10 nM. Moreover, the fold induction at 0.4 µM in assay [2] lay in the range of 3 to 5.
For `CC[C@@H]1CN(Cc2cc([C@@H](CC(=O)O)c3cc(Cl)c4c(nnn4C)c3C)cc3ccsc23)[C@@H](C)c2ncccc2O1` [Example 70, (3R)-3-(7-Chloro-1,4-dimethyl-1H-benzotriazol-5-yl)-3-(7-{[(2R,5S)-2-ethyl-5-methyl-2,3-dihydropyrido[2,3-f][1,4]oxazepin-4(5H)-yl]methyl}-1-benzothiophen-5-yl)propanoic acid], the IC50 in assay [1] was in the range of 30 to 100 nM. Moreover, in assay [2], the fold induction at 0.4 µM fell in the range of 3 to 5.
As for `CC[C@@H]1CN(Cc2cc(C(CC(=O)O)c3ccc4c(nnn4C)c3C)cc3ccsc23)[C@H](C)c2ncccc2O1` (stereo partly drawn) [Example 73, 3-(1,4-Dimethyl-1H-benzotriazol-5-yl)-3-(7-{[(2R,5R)-2-ethyl-5-methyl-2,3-dihydropyrido[2,3-f][1,4]oxazepin-4(5H)-yl]methyl}-1-benzothiophen-5-yl)propanoic acid], in assay [1], the IC50 was 30 to 100 nM. Also, the fold induction at 0.4 µM in assay [2] is more than 5.
In the case of `CC[C@@H]1CN(Cc2cc([C@H](CC(=O)O)c3ccc4c(nnn4C)c3Cl)cc3ccsc23)[C@@H](C)c2ncccc2O1` [Example 74, (3S)-3-(4-Chloro-1-methyl-1H-benzotriazol-5-yl)-3-(7-{[(2R,5S)-2-ethyl-5-methyl-2,3-dihydropyrido[2,3-f][1,4]oxazepin-4(5H)-yl]methyl}-1-benzothiophen-5-yl)propanoic acid], in assay [1], the IC50 is not above 10 nM. Also, the fold induction at 0.4 µM in assay [2] was more than 5.
Taken in the same sequence, the figures for `CC[C@@H]1CN(Cc2cc([C@@H](CC(=O)O)c3ccc4c(nnn4C)c3Cl)cc3ccsc23)[C@@H](C)c2ncccc2O1` [Example 75, (3R)-3-(4-Chloro-1-methyl-1H-benzotriazol-5-yl)-3-(7-{[(2R,5S)-2-ethyl-5-methyl-2,3-dihydropyrido[2,3-f][1,4]oxazepin-4(5H)-yl]methyl}-1-benzothiophen-5-yl)propanoic acid] were not above 10 nM and more than 5.
Take `Cc1c([C@@H](CC(=O)O)c2cc(CN3C[C@@H](C)Oc4ccc(O)nc4[C@@H]3C)c3sccc3c2)ccc2c1nnn2C` [Example 80, (3S)-3-(1,4-Dimethyl-1H-benzotriazol-5-yl)-3-(7-{[(2R,5S)-7-hydroxy-2,5-dimethyl-2,3-dihydropyrido[2,3-f][1,4]oxazepin-4(5H)-yl]methyl}-1-benzothiophen-5-yl)propanoic acid]: the IC50 in assay [1] lay within 10 to 30 nM. Besides, the fold induction at 0.4 µM in assay [2] is more than 5.
Take `Cc1c([C@H](CC(=O)O)c2cc(CN3C[C@@H](C)Oc4ccc(O)nc4[C@@H]3C)c3sccc3c2)ccc2c1nnn2C` [Example 82, (3R)-3-(1,4-Dimethyl-1H-benzotriazol-5-yl)-3-(7-{[(2R,5S)-7-hydroxy-2,5-dimethyl-2,3-dihydropyrido[2,3-f][1,4]oxazepin-4(5H)-yl]methyl}-1-benzothiophen-5-yl)propanoic acid]: the IC50 in assay [1] lay within 10 to 30 nM. Further, the fold induction at 0.4 µM in assay [2] is more than 5.
In assay [1], `CC[C@@H]1CN(Cc2cc([C@@H](c3ccc4c(nnn4C)c3C)C(C)(C)C(=O)O)cc3c2CCC3)[C@@H](C)c2ncccc2O1` [Example 89, (3S)-3-(1,4-Dimethyl-1H-benzotriazol-5-yl)-3-(7-{[(2R,5S)-2-ethyl-5-methyl-2,3-dihydropyrido[2,3-f][1,4]oxazepin-4(5H)-yl]methyl}-2,3-dihydro-1H-inden-5-yl)-2,2-dimethylpropanoic acid] came in with an IC50 not above 10 nM. In addition, the fold induction at 0.4 µM in assay [2] is more than 5.
In turn, `Cc1c(C(CC(=O)O)c2cc(CN3C[C@@H](C)Oc4ccccc4S3(=O)=O)c3cc[nH]c3c2)ccc2c1nnn2C` (stereo partly drawn) [Example 90, 3-(1,4-Dimethyl-1H-benzotriazol-5-yl)-3-(4-{[(4R)-4-methyl-1,1-dioxido-3,4-dihydro-2H-5,1,2-benzoxathiazepin-2-yl]methyl}-1H-indol-6-yl)propanoic acid] came in with an IC50 in assay [1] of 10 to 30 nM. Moreover, in assay [2], the fold induction at 0.4 µM was more than 5.
Taken in the same sequence, the figures for `CC[C@@H]1CN(Cc2cc(C(CC(=O)O)c3ccc4c(nnn4C)c3C)cc3c2OCC3)S(=O)(=O)c2cc(Cl)cnc2O1` (stereo partly drawn) [Example 91, 3-(7-{[(4R)-8-Chloro-4-ethyl-1,1-dioxido-3,4-dihydro-2H-pyrido[2,3-b][1,4,5]oxathiazepin-2-yl]methyl}-2,3-dihydro-1-benzofuran-5-yl)-3-(1,4-dimethyl-1H-benzotriazol-5-yl)propanoic acid] were 10 to 30 nM and more than 5.
Taken in the same sequence, the figures for `CC[C@@H]1CN(Cc2cc(C(CC(=O)O)c3ccc4c(nnn4C)c3Cl)cc3ccoc23)S(=O)(=O)c2cc(Cl)cnc2O1` (stereo partly drawn) [Example 92, 3-(7-{[(4R)-8-Chloro-4-ethyl-1,1-dioxido-3,4-dihydro-2H-pyrido[2,3-b][1,4,5]oxathiazepin-2-yl]methyl}-1-benzofuran-5-yl)-3-(4-chloro-1-methyl-1H-benzotriazol-5-yl)propanoic acid] were 10 to 30 nM and more than 5.
In turn, `C[C@@H]1CN(Cc2cc(C(CC(=O)O)c3ccc4c(nnn4C)c3Cl)cc3c2CCC3)S(=O)(=O)c2ccccc2O1` (stereo partly drawn) [Example 95, 3-(4-Chloro-1-methyl-1H-benzotriazol-5-yl)-3-(7-{[(4R)-4-methyl-1,1-dioxido-3,4-dihydro-2H-5,1,2-benzoxathiazepin-2-yl]methyl}-2,3-dihydro-1H-inden-5-yl)propanoic acid] showed an IC50 in assay [1] not above 10 nM. Besides, in assay [2], the fold induction at 0.4 µM was more than 5.
The corresponding values for `CC[C@@H]1CN(Cc2cc([C@H](CC(=O)O)c3cc(Cl)c4c(nnn4C)c3C)cc3c2CCC3)S(=O)(=O)c2cc(Cl)cnc2O1` [Example 96, (3S)-3-(7-Chloro-1,4-dimethyl-1H-benzotriazol-5-yl)-3-(7-{[(4R)-8-chloro-4-ethyl-1,1-dioxido-3,4-dihydro-2H-pyrido[2,3-b][1,4,5]oxathiazepin-2-yl]methyl}-2,3-dihydro-1H-inden-5-yl)propanoic acid] are not above 10 nM and more than 5.
Consider `CC[C@@H]1CN(Cc2cc([C@@H](CC(=O)O)c3cc(Cl)c4c(nnn4C)c3C)cc3c2CCC3)S(=O)(=O)c2cc(Cl)cnc2O1` [Example 97, (3R)-3-(7-Chloro-1,4-dimethyl-1H-benzotriazol-5-yl)-3-(7-{[(4R)-8-chloro-4-ethyl-1,1-dioxido-3,4-dihydro-2H-pyrido[2,3-b][1,4,5]oxathiazepin-2-yl]methyl}-2,3-dihydro-1H-inden-5-yl)propanoic acid], for which, in assay [1], the half-inhibitory concentration (IC50) was not above 10 nM. For the same compound, the fold induction at 0.4 µM in assay [2] is more than 5.
The compound `CC[C@@H]1CN(Cc2cc([C@@H](CC(=O)O)c3cc(OC(F)F)c4c(nnn4C)c3C)cc3c2CCC3)S(=O)(=O)c2cc(Cl)cnc2O1` [Example 98, (3R)-3-(7-{[(4R)-8-Chloro-4-ethyl-1,1-dioxido-3,4-dihydro-2H-pyrido[2,3-b][1,4,5]oxathiazepin-2-yl]methyl}-2,3-dihydro-1H-inden-5-yl)-3-[7-(difluoromethoxy)-1,4-dimethyl-1H-benzotriazol-5-yl]propanoic acid] displayed a 50% inhibitory concentration (IC50) in assay [1] not above 10 nM. For the same compound, the fold induction at 0.4 µM in assay [2] is more than 5.
In turn, `CC[C@@H]1CN(Cc2cc([C@H](CC(=O)O)c3cc(OC(F)F)c4c(nnn4C)c3C)cc3c2CCC3)S(=O)(=O)c2cc(Cl)cnc2O1` [Example 99, (3S)-3-(7-{[(4R)-8-Chloro-4-ethyl-1,1-dioxido-3,4-dihydro-2H-pyrido[2,3-b][1,4,5]oxathiazepin-2-yl]methyl}-2,3-dihydro-1H-inden-5-yl)-3-[7-(difluoromethoxy)-1,4-dimethyl-1H-benzotriazol-5-yl]propanoic acid] displayed an IC50 in assay [1] not above 10 nM. For the same compound, the fold induction at 0.4 µM in assay [2] was more than 5.

Usually IC50 stands for the midpoint of a concentration-inhibition curve. Read a low IC50 as greater potency in that assay. By fold induction is commonly meant the signal under treatment as a multiple of the control signal.
